For 4 molecules, IC50 results are on record in patent US9493441B2, “Acyclic cyanoethylpyrazoles as janus kinase inhibitors” (Merck Sharp & Dohme Corp., priority 2011, dated 2016).

The structures appear in SMILES notation.

The target of one assay is JAK1 (Homo sapiens (Human), UniProt P23458). As to the kind of experiment: Jak biochemical HTRF assay, JAK1. As to conditions: JAK1 IC50 (nM), recombinant GST-tagged catalytic domain, [ATP] 31.8 μM.
Another assay deals with JAK2 (Homo sapiens (Human), UniProt O60674). As to the kind of experiment: Jak biochemical HTRF assay, JAK2. As to conditions: JAK2 IC50 (nM), recombinant GST-tagged catalytic domain, [ATP] […].
Sequence of JAK2 (O60674 849-1124): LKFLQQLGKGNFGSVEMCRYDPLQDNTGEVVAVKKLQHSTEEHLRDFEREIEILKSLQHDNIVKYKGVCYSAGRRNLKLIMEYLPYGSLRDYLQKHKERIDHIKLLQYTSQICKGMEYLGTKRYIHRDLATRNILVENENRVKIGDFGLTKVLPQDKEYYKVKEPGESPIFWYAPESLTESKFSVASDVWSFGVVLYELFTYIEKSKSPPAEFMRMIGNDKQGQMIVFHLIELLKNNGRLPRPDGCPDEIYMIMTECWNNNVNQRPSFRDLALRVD

Sequence of JAK1 (P23458 875-1153): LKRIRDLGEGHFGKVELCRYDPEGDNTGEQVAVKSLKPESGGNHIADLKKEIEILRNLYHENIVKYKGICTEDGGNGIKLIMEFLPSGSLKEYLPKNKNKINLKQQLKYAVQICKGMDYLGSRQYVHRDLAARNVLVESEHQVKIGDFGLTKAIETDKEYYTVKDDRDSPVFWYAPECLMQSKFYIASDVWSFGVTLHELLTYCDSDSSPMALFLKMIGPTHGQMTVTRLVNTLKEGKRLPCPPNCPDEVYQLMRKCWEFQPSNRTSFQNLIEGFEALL

The IC50 is the concentration at which inhibition is half-maximal. As for `CC(C)(O)COCc1cccc(Nc2nn(C(CC#N)C3CC3)cc2C(N)=O)c1` (centres unmarked) [Example 6-1, 1-(2-Cyano-1-cyclopropylethyl)-3-({3-[(2-hydroxy-2-methylpropoxy)methyl]phenyl}amino)-1H-pyrazole-4-carboxamide], the IC50 was 47 nM at JAK1 and 115 nM on JAK2.
The corresponding values for `N#CCC(C1CC1)n1cc(C(N)=O)c(Nc2ccc(S(=O)(=O)C(F)F)cc2)n1` (centres unmarked) [Example 4-29, 1-(2-cyano-1-cyclopropylethyl)-3-({4-[(difluoromethyl)sulfonyl]phenyl}amino)-1H-pyrazole-4-carboxamide] are 2 nM and 13 nM.
In the same order, the values of `N#CCC(C1CC1)n1cc(C(N)=O)c(Nc2ccc3c(c2)CN(CC(F)(F)F)C3=O)n1` (centres unmarked) [Example 4-31, 1-(2-cyano-1-cyclopropylethyl)-3-{[1-oxo-2-(2,2,2-trifluoroethyl)-2,3-dihydro-1H-isoindol-5-yl]amino}-1H-pyrazole-4-carboxamide] are 2 nM and 7 nM.
Regarding `N#CC[C@@H](C1CCN(C(=O)OCC2CC2)CC1)n1cc(C(N)=O)c(Nc2ccc(F)cc2)n1` [Example 11-10, cyclopropylmethyl 4-[(1S)-1-{4-carbamoyl-3-[(4-fluorophenyl)amino]-1H-pyrazol-1-yl}-2-cyanoethyl]piperidine-1-carboxylate], the IC50 on JAK1 was 44 nM; on JAK2 it was 1160 nM.
